Results published in paper PMC12902737 (Biotechnology and Applied Biochemistry, 2025).
Where two headings read alike, the source gives them in different places.

Assays:
ALR2 enzyme = ALR2 enzyme (Ovis aries, UniProt A0ACI6S8R2); experiment: ALR2 enzyme activity / in vitro inhibition (NADPH absorbance decrease at 340 nm, DL-glyceraldehyde substrate); format: biochemical
Experimental: By tracking the shift in absorbance at 340 nm brought on by a decrease in NADPH, ALR2 activity was ascertained. The reaction mixture for ALR2 activity consists of 0.8 M Na‐phosphate buffer (pH = 5.5), NADPH (0.11 mM), DL‐glyceraldehyde (4.7 mM), and enzyme solution [36, 37]. […] Every measurement was taken three times.
The K I values and inhibition types were ascertained using the Lineweaver and Burk curves (Figure 5).

ALR2 [1] = system: ALR2; set-up: method as in ref 80 (Racowitz et al.); details: ref 80 (Racowitz et al.); cited from earlier work
ALR2 [2] = system: ALR2; set-up: method as in ref 79 (Sever et al.); details: ref 79 (Sever et al.); cited from earlier work

Compound	Inhibition type (ALR2 enzyme; Lineweaver-Burk curves)	other results
O=[N+]([O-])c1ccc(-c2ccon2)cc1 [Compound c, 3‐(4‐nitrophenyl) isoxazole]	Competitive	–
CC(/C=C1\SC(=S)N(CC(=O)O)C1=O)=C\c1ccccc1 [EPR, Epalrestat, reference compound]	–	Inhibition type (ALR2 enzyme): Noncompetitive
Clc1ccc(-c2ccon2)cc1 [b, 3‐(4‐chlorophenyl) isoxazole]	Competitive	–
Brc1ccc(-c2ccon2)cc1 [d, 3‐(4‐bromophenyl) isoxazole]	Competitive	–
Fc1ccc(-c2ccon2)cc1 [e, 3‐(4‐fluorophenyl) isoxazole]	Competitive	–
Fc1ccc(-c2ccno2)cc1 [f, 5‐(4‐fluorophenyl) isoxazole]	Competitive	–
Clc1ccc(-c2ccno2)cc1 [g, 5‐(4‐chlorophenyl) isoxazole]	Competitive	–
COc1ccc(-c2ccno2)cc1 [h, 5‐(4‐methoxyphenyl) isoxazole]	Competitive	–
O=C(O)Cc1nn(Cc2ccc(Br)cc2F)c(=O)c2ccccc12 [ponalrestat]	–	IC50 (ALR2 [1]): 0.08 µM
O=c1c(O)c(-c2ccc(O)c(O)c2)oc2cc(O)cc(O)c12 [quercetin]	–	IC50 (ALR2 [2]): 3.23 µM
O=C1NC(=O)[C@@]2(CCOc3ccc(F)cc32)N1 [sorbinil]	–	IC50 (ALR2 [1]): 3.42 ± 0.02 µM
Isoxazole	Noncompetitive	Ki (ALR2 enzyme; mean ± standard error of mean, Lineweaver-Burk curves): 0.0895 ± 0.00468 µM; IC50 (ALR2 enzyme; mean ± standard error of mean, from Activity (%) vs compound graphs): 0.043 ± 0.00164 µM
